Key:
HDAC1 = target: T1, HDAC1 (Homo sapiens, UniProt Q13547); assay: HDAC enzyme activity inhibition (in vitro), HDAC1 Fluorimetric Drug Discovery Assay Kit; type: biochemical; conditions: samples at 100, 1000 and 10000 nM; 37° C. 60 minutes; fluorescence Ex 390, Em 460; read-out: HDAC1 IC50
T1 construct: purchased Enzolifesciences BML-AK511
Method in brief: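 Fluorescence read-out (Ex 390/Em 460) after developer step, 30 min at 37° C, following a 60-min 37° C enzyme reaction. Test concentrations: HDAC1 kit, 100–10000 nM (three levels); recombinant human HDAC6, 0.1–1000 nM (five levels).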

HDAC6 human recombinant = target: T2, HDAC6 human recombinant (Homo sapiens, UniProt Q9UBN7); assay: HDAC enzyme activity inhibition (in vitro), HDAC6 assay; type: biochemical; conditions: samples at 0.1, 1, 10, 100 and 1000 nM; 37° C. 60 minutes; fluorescence Ex 390, Em 460; read-out: HDAC6 IC50
T2 construct: purchased Calbiochem 382180
T2 sequence (Q9UBN7 1-1215): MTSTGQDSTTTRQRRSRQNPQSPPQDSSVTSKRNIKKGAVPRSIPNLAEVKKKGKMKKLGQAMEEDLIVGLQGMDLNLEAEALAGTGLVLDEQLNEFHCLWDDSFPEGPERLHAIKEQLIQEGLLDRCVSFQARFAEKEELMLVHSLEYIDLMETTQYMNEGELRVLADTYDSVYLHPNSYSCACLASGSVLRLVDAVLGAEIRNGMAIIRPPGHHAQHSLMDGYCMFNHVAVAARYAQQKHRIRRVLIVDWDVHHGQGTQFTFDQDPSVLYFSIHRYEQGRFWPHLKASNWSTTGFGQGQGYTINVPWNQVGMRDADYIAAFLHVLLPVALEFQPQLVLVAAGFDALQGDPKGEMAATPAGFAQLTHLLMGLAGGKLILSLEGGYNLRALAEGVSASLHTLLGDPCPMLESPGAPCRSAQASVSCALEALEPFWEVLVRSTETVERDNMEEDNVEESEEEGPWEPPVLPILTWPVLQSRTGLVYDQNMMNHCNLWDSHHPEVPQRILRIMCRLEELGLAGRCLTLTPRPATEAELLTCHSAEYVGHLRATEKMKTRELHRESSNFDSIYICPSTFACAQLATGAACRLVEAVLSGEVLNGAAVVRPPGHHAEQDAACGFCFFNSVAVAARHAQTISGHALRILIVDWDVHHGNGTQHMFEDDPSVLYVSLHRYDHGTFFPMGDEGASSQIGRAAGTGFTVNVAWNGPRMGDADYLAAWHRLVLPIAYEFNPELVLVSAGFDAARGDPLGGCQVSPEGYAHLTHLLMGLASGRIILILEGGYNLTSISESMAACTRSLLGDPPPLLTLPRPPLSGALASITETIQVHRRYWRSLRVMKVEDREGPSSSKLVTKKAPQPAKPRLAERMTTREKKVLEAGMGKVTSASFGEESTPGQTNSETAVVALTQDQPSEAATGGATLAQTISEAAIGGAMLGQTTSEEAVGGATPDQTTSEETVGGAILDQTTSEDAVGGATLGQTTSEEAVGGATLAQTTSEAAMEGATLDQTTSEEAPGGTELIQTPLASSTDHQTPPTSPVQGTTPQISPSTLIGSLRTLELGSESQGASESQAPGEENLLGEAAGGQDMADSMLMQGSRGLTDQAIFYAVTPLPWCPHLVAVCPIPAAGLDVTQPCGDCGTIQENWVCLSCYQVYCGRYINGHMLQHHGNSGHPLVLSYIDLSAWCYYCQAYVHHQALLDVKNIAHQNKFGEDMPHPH
Method in brief: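 Fluorescence (Ex 390, Em 460) read after a 37° C, 60 min enzyme reaction and a further 30 min developer step at 37° C. Uses recombinant human HDAC6; HDAC1 arm dosed at 100, 1000, 10000 nM.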

T1 sequence (Q13547 whole entry): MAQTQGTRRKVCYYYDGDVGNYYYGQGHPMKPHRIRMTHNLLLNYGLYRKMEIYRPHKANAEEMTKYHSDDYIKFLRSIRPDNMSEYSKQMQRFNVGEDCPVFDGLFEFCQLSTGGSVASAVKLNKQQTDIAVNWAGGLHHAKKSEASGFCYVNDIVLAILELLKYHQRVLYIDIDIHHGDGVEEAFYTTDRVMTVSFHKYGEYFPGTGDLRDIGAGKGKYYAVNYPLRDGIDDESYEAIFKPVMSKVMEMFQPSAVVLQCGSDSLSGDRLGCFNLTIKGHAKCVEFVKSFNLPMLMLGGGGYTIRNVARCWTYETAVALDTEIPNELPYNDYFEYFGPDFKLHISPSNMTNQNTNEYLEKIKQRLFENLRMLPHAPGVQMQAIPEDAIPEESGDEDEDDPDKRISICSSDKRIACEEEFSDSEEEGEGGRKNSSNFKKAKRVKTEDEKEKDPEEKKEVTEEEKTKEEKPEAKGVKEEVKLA

IC50 (HDAC1) [µM]	IC50 (HDAC6 human recombinant) [µM]	Compound
> 10	0.061	Cn1c(=O)n(Cc2ccc(-c3nnc(C(F)F)o3)cn2)c2cc(F)c(N3CCN(C4COC4)CC3)cc21 [Compound 264, 1-((5-(5-(difluoromethyl)-1,3,4-oxadiazole-2-yl)pyridine-2-yl)methyl)-6-fluoro-3-methy 1-5-(4-(oxetan-3-yl)piperazine-1-yl)-1,3-dihydro-2H-benzo[d]imidazole-2-one]
> 10	0.026	CN1CCN(c2cc(-c3cc4oc(=O)n(Cc5ccc(-c6nnc(C(F)F)o6)cn5)c4cc3F)ccn2)CC1 [Compound 364, 3-((5-(5-(difluoromethyl)-1,3,4-oxadiazole-2-yl)pyridine-2-yl)methyl)-5-fluoro-6-(2-(4-methylpiperazine-1-yl)pyridine-4-yl)benzo[d]oxazole-2(3H)-one]
> 10	1.14	CC(C)(C)OC(=O)n1ccc2cc(-c3ccc4c(c3)sc(=O)n4Cc3ccc(-c4nnc(C(F)F)o4)cn3)ccc21 [Compound 237, tert-butyl 5-(3-((5-(5-(difluoromethyl)-1,3,4-oxadiazole-2-yl)pyridine-2-yl)methyl)-2-oxo-2,3-dihydrobenzo[d]thiazole-6-yl)-1H-indole-1-carboxylate]
> 10	0.013	Cn1c(=O)n(Cc2ccc(-c3nnc(C(F)F)o3)cn2)c2ccc(-c3cccnc3)cc21 [Compound 208, 1-((5-(5-(difluoromethyl)-1,3,4-oxadiazole-2-yl)pyridine-2-yl)methyl)-3-methyl-5-(pyridine-3-yl)-1,3-dihydro-2H-benzo[d]imidazole-2-one]
> 10	0.007	O=c1n(Cc2ccc(-c3nnc(C(F)F)o3)cn2)c2cc(F)c(-c3cccnc3)cc2n1CC1CCN(C2COC2)CC1 [Compound 290, 1-((5-(5-(difluoromethyl)-1,3,4-oxadiazole-2-yl)pyridine-2-yl)methyl)-6-fluoro-3-((1-(oxetan-3-yl)piperidine-4-yl)methyl)-5-(pyridine-3-yl)-1,3-dihydro-2H-benzo[d]imidazole-2-one]
> 10	0.053	O=c1n(Cc2ccc(-c3nnc(C(F)F)o3)cn2)c2cc(F)c(N3CCN(C4COC4)CC3)cc2n1C1COC1 [Compound 321, 1-((5-(5-(difluoromethyl)-1,3,4-oxadiazole-2-yl)pyridine-2-yl)methyl)-6-fluoro-3-(oxetan-3-yl)-5-(4-(oxetan-3-yl)piperazine-1-yl)-1,3-dihydro-2H-benzo[d]imidazole-2-one]
> 10	0.006	O=c1n(Cc2ccc(-c3nnc(C(F)F)o3)cn2)c2cc(F)c(-c3cn[nH]c3)cc2n1C1CN(C2COC2)C1 [Compound 312, 1-((5-(5-(difluoromethyl)-1,3,4-oxadiazole-2-yl)pyridine-2-yl)methyl)-6-fluoro-3-(1-(oxetan-3-yl)azetidine-3-yl)-5-(1H-pyrazole-4-yl)-1,3-dihydro-2H-benzo[d]imidazole-2-one]
> 10	0.041	O=c1n(Cc2ccc(-c3nnc(C(F)F)o3)cn2)c2cc(F)c(N3CCN(C4CCC4)CC3)cc2n1C1COC1 [Compound 320, 5-(4-cyclobutylpiperazine-1-yl)-1-((5-(5-(difluoromethyl)-1,3,4-oxadiazole-2-yl)pyridine-2-yl)methyl)-6-fluoro-3-(oxetan-3-yl)-1,3-dihydro-2H-benzo[d]imidazole-2-one]
> 10	0.016	O=c1n(Cc2ccc(-c3nnc(C(F)F)o3)cn2)c2ccc(-c3ccncc3)cc2n1C1CCN(C2COC2)CC1 [Compound 282, 1-((5-(5-(difluoromethyl)-1,3,4-oxadiazole-2-yl)pyridine-2-yl)methyl)-3-(1-(oxetan-3-yl)piperidine-4-yl)-5-(pyridine-4-yl)-1,3-dihydro-2H-benzo[d]imidazole-2-one]
> 10	0.127	O=c1n(Cc2ccc(-c3nnc(C(F)F)o3)cn2)c2cc(F)c(N3CCN(C4COC4)CC3)cc2n1-c1cccnc1 [Compound 329, 1-((5-(5-(difluoromethyl)-1,3,4-oxadiazole-2-yl)pyridine-2-yl)methyl)-6-fluoro-5-(4-(oxetan-3-yl)piperazine-1-yl)-3-(pyridine-3-yl)-1,3-dihydro-2H-benzo[d]imidazole-2-one]

More lines, now with the values behind:

Compound	IC50 (HDAC1) [µM]	IC50 (HDAC6 human recombinant) [µM]
CN1CCC(n2c(=O)n(Cc3ccc(-c4nnc(C(F)F)o4)cn3)c3cc(F)c(-c4cccc(F)c4)cc32)CC1 [Compound 154, 1-((5-(5-(difluoromethyl)-1,3,4-oxadiazole-2-yl)pyridine-2-yl)methyl)-6-fluoro-5-(3-fluorophenyl)-3-(1-methylpiperidine-4-yl)-1,3-dihydro-2H-benzo[d]imidazole-2-one]	> 10	0.042
Cn1c(=O)n(Cc2ccc(-c3nnc(C(F)F)o3)cn2)c2cc(F)c(-c3ccc(C(F)(F)F)cc3)cc21 [Compound 167, 1-((5-(5-(difluoromethyl)-1,3,4-oxadiazole-2-yl)pyridine-2-yl)methyl)-6-fluoro-3-methy 1-5-(4-(trifluoromethyl)phenyl)-1,3-dihydro-2H-benzo[d]imidazole-2-one]	> 10	0.138
O=c1n(Cc2ccc(-c3nnc(C(F)F)o3)cc2F)c2ccccc2n1C1CCN(Cc2cccc3cc[nH]c23)CC1 [Compound 19, 1-(1-((1H-indole-7-yl)methyl)piperidine-4-yl)-3-(4-(5-(difluoromethyl)-1,3,4-oxadiazole-2-yl)-2-fluorobenzyl)-1,3-dihydro-2H-benzo[d]imidazole-2-one]	> 10	2.42
CN1CCC(n2c(=O)n(Cc3ccc(-c4nnc(C(F)F)o4)cn3)c3ccc(-c4ccco4)cc32)CC1 [Compound 138, 1-((5-(5-(difluoromethyl)-1,3,4-oxadiazole-2-yl)pyridine-2-yl)methyl)-5-(furan-2-yl)-3-(1-methylpiperidine-4-yl)-1,3-dihydro-2H-benzo[d]imidazole-2-one]	> 10	0.019
CN1CCC(n2c(=O)n(Cc3ccc(-c4nnc(C(F)F)o4)cc3F)c3ccc(-c4ccncc4)cc32)CC1 [Compound 161, 1-(4-(5-(difluoromethyl)-1,3,4-oxadiazole-2-yl)-2-fluorobenzyl)-3-(1-methylpiperidine-4-yl)-5-(pyridine-4-yl)-1,3-dihydro-2H-benzo[d]imidazole-2-one]	> 10	0.04
CC(=O)N1CCC(n2c(=O)n(Cc3ccc(-c4nnc(C(F)F)o4)cn3)c3ccccc32)CC1 [Compound 187, 1-(1-acetylpiperidine-4-yl)-3-((5-(5-(difluoromethyl)-1,3,4-oxadiazole-2-yl)pyridine-2-yl)methyl)-1,3-dihydro-2H-benzo[d]imidazole-2-one]	> 10	0.064
CN1CCC(n2c(=O)n(Cc3ccc(-c4nnc(C(F)F)o4)cc3F)c3cc(F)c(Br)cc32)CC1 [Compound 113, 5-bromo-1-(4-(5-(difluoromethyl)-1,3,4-oxadiazole-2-yl)-2-fluorobenzyl)-6-fluoro-3-(1-methylpiperidine-4-yl)-1,3-dihydro-2H-benzo[d]imidazole-2-one]	> 10	0.065
CN1CCC(n2c(=O)n(Cc3ccc(-c4nnc(C(F)F)o4)cn3)c3cc(F)ccc32)CC1 [Compound 48, 3-((5-(5-(difluoromethyl)-1,3,4-oxadiazole-2-yl)pyridine-2-yl)methyl)-5-fluoro-1-(1-methylpiperidine-4-yl)-1,3-dihydro-2H-benzo[d]imidazole-2-one]	> 10	0.022

Source: patent US20230092890A1, “1, 3, 4-Oxadiazole derivative compounds as histone deacetylase 6 inhibitor, and the pharmaceutical composition comprising the same” (Chong Kun Dang Pharmaceutical Corp., priority 2019, published 2023)
